{"source": "patent US6503881B2", "about": "(priority 1996, dated 2003)", "key": {"P. aeruginosa": {"tested_on": "P. aeruginosa", "assay_type": "cell-based"}, "K. pneumoniae": {"tested_on": "K. pneumoniae", "assay_type": "cell-based", "conditions": "for MIC Alone: agent alone; for MBI 26 MIC, +Erythro.: in combination with erythromycin"}}, "note": "Read-outs that look alike come from different tables or passages of the source.", "data": [{"substance": "W R I W K P K W R L P K W [MBI 11D18CN]", "values": [{"measurement": "MIC", "setting": "bacteria; A. calcoaceticus AC003", "value": 32, "unit": "µg/mL"}, {"measurement": "MIC", "setting": "bacteria; E. cloacae ECL009", "value": 64, "unit": "µg/mL"}, {"measurement": "MIC", "setting": "bacteria; E. coli ATCC 25922, agarose dilution assay", "value": 16, "unit": "µg/mL"}, {"measurement": "MIC", "setting": "bacteria; E. coli ECO002", "value": 4, "unit": "µg/mL"}, {"measurement": "MIC", "setting": "bacteria; E. coli ESS, agarose dilution assay", "value": 2, "unit": "µg/mL"}, {"measurement": "MIC", "setting": "bacteria; E. coli NCTC 10418, agarose dilution assay", "value": 2, "unit": "µg/mL"}, {"measurement": "MIC", "setting": "bacteria; E. faecalis EFS002", "value": 32, "unit": "µg/mL"}, {"measurement": "MIC", "setting": "bacteria; E. faecium ATCC 29212, agarose dilution assay", "value": 8, "unit": "µg/mL"}, {"measurement": "MIC", "setting": "bacteria; E. faecium EFM003", "value": 2, "unit": "µg/mL"}, {"measurement": "MIC", "setting": "bacteria; H. influenzae HIN002", "value": ">128", "unit": "µg/mL"}, {"measurement": "MIC", "setting": "bacteria; K. pneumoniae KP002", "value": 64, "unit": "µg/mL"}, {"measurement": "MIC", "setting": "bacteria; P. aeruginosa ATCC 27853, agarose dilution assay", "value": 128, "unit": "µg/mL"}, {"measurement": "MIC", "setting": "bacteria; P. aeruginosa NCTC 10662, agarose dilution assay", "value": 128, "unit": "µg/mL"}, {"measurement": "MIC", "setting": "bacteria; P. aeruginosa PA006", "value": ">128", "unit": "µg/mL"}, {"measurement": "MIC", "setting": "bacteria; P. mirabilis PM003", "value": ">128", "unit": "µg/mL"}, {"measurement": "MIC", "setting": "bacteria; P. vulgaris ATCC 13315, agarose dilution assay", "value": 32, "unit": "µg/mL"}, {"measurement": "MIC", "setting": "bacteria; P. vulgaris SBPV1", "value": 32, "unit": "µg/mL"}, {"measurement": "MIC", "setting": "bacteria; S. aureus ATCC 29213, agarose dilution assay", "value": 0.5, "unit": "µg/mL"}, {"measurement": "MIC", "setting": "bacteria; S. aureus MRSA9, agarose dilution assay", "value": 2, "unit": "µg/mL"}, {"measurement": "MIC", "setting": "bacteria; S. aureus MRSA13, agarose dilution assay", "value": 8, "unit": "µg/mL"}, {"measurement": "MIC", "setting": "bacteria; S. aureus MRSA17, agarose dilution assay", "value": 2, "unit": "µg/mL"}, {"measurement": "MIC", "setting": "bacteria; S. aureus SA010", "value": 4, "unit": "µg/mL"}, {"measurement": "MIC", "setting": "bacteria; S. aureus SA206, agarose dilution assay", "value": 4, "unit": "µg/mL"}, {"measurement": "MIC", "setting": "bacteria; S. epidermidis SE010", "value": 2, "unit": "µg/mL"}, {"measurement": "MIC", "setting": "bacteria; S. maltophilia SMA003", "value": 16, "unit": "µg/mL"}, {"measurement": "MIC", "setting": "bacteria; S. marcescens SBSM2", "value": ">128", "unit": "µg/mL"}, {"measurement": "MIC", "setting": "bacteria; S. marcescens SM76, agarose dilution assay", "value": ">128", "unit": "µg/mL"}, {"measurement": "MIC", "setting": "bacteria; S. marcescens SM82, agarose dilution assay", "value": ">128", "unit": "µg/mL"}, {"measurement": "MIC", "setting": "bacteria; S. pneumoniae 406LE8, agarose dilution assay", "value": 64, "unit": "µg/mL"}, {"measurement": "MIC", "setting": "bacteria; S. pneumoniae 60120, agarose dilution assay", "value": 128, "unit": "µg/mL"}, {"measurement": "MIC", "setting": "bacteria; S. pneumoniae ATCC 49619, agarose dilution assay", "value": 64, "unit": "µg/mL"}, {"measurement": "MIC", "setting": "bacteria; S. pneumoniae SBSPN3", "value": 64, "unit": "µg/mL"}, {"measurement": "MIC", "setting": "bacteria; S. pyogenes SPY003", "value": 32, "unit": "µg/mL"}]}, {"substance": "KWKSFIKKLTSAAKKVVTTAKPLISS [MBI 26]", "values": [{"measurement": "MIC in combination", "setting": "P. aeruginosa; P. aeruginosa PA024, pair Ceftriaxone / MBI 26", "value": 32, "unit": "µg/mL"}, {"measurement": "MIC Alone", "setting": "P. aeruginosa; P. aeruginosa PA041, agent alone", "value": 64, "unit": "µg/mL"}, {"measurement": "MBI 26 MIC, +Erythro.", "setting": "P. aeruginosa; P. aeruginosa PA041, in combination with erythromycin", "value": 32, "unit": "µg/mL"}, {"measurement": "MIC Alone", "setting": "K. pneumoniae; K. pneumoniae KP001", "value": 16, "unit": "µg/mL"}, {"measurement": "MBI 26 MIC, +Erythro.", "setting": "K. pneumoniae; K. pneumoniae KP001", "value": 8, "unit": "µg/mL"}, {"measurement": "MIC Alone", "setting": "K. pneumoniae; K. pneumoniae KP002", "value": 64, "unit": "µg/mL"}, {"measurement": "MBI 26 MIC, +Erythro.", "setting": "K. pneumoniae; K. pneumoniae KP002", "value": 32, "unit": "µg/mL"}]}]}
